According to PubChem BioAssay AID2060503 (Molecular Pharmacology Branch, DTP, NCI, 2025):

Test system: 817829-284-R-J1-PDC complex spheroids, viability
Experiment: Anticancer human tumor 817829-284-R-J1-PDC patient-derived colon adenocarcinoma cell line growth inhibition [GQUAD]
Conditions: for IC50: curve of first compound; for viability, T/C: stronger effect = lower value
Text: DNA G-quadruplex Stabilizer Agents in Combinations in Complex Spheroids
A high-throughput screen of multi-cell type tumor spheroids was designed to identify active combinations of DNA G-quadruplex stabilizer agents and targeted small molecules. Complex spheroids include a stromal component modeled by human endothelial cells (HUVEC) and fibroblasts modeled by human mesenchymal stem cells (MSCs). The concentration ranges selected for each drug and investigational agent were based upon clinically achievable concentrations if the clinical Cmax of the agent was known.
Compounds. The drugs and investigational agents: pidnarulex (CX-5461; NSC782164), APTO-253 (NSC789042), BRACO-19 (NSC847499), peposertib (NSC802822), ceralasertib (NSC780249), elimusertib (NSC800525), camonsertib (NSC841442), AZD-1390 (NSC803789), olaparib (NSC753686), talazoparib (NSC767125), ART-558 (NSC835418), sotorasib (NSC818433), MRTX-1133 (NSC836407), SN-38 (NSC673596), topotecan (NSC609699), etoposide (NSC141540), doxorubicin (NSC123127), gemcitabine (NSC613327), 5-fluorouracil (NSC19893), paclitaxel (NSC125973), vemurafenib (NSC761431), panobinostat (NSC761190), R-306465 (JNJ-16241199; NSC773264), adavosertib (NSC754352), TP-3654 (NSC805149), carboplatin (NSC241240), KSQ-4279 (NSC840948), and staurosporine (NSC755774) were obtained from the National Cancer Institute (NCI) Developmental Therapeutics Program Chemical Repository (34). The FDA-approved anticancer drug set is available from the NCI Developmental Therapeutics Program. […] The stock solutions were prepared in dimethyl sulfoxide (DMSO, Sigma-Aldrich, St. Louis, MO, cat. D2650) at 800-fold the tested concentration and stored at -70 degrees C prior to their use. All drugs and investigational agents were tested over a range starting from a high concentration at or near the clinical Cmax and decreasing in half-log increments. If the clinical Cmax for an agent had not been determined, the highest concentration tested was 10 microM.
2.3 Cell Culture. All cells were maintained in an incubator at 37 degrees C and 5% CO2 with 95% humidity. The PDC lines were cultured according to standard operating procedures established by the NCI PDMR. All PDCs were thawed and cultured in Matrigel-coated flasks prepared with a working solution of 1X Ham's F-12 nutrient mix, without supplementation (Invitrogen, cat. 11765054), 100 U/mL penicillin-streptomycin (Invitrogen, cat. 15140122), and 2.5% Matrigel (Corning Inc., cat. 354248) for the first three passages. The 857933-349-R-J2-PDC line was cultured in 6C/Colon 1B media, which includes advanced DMEM/F-12 (Thermo Fisher Scientific, cat. 12634028), 10 mM HEPES (Thermo Fisher Scientific, cat. 15630080), 1X GlutaMAX supplement (Thermo Fisher Scientific, cat. 35050061), 0.1 mg/mL primocin (InvivoGen, cat. ant-pm-2), 10% defined fetal bovine serum, heat inactivated (HyClone Laboratories Inc., cat. SH30070.03HI), 50% L-WRN conditioned media (ATCC, cat. CRL-3276), 1.25 mM N-Acetyl-L-cysteine (Sigma-Aldrich, cat. A9165), 10 mM nicotinamide (Sigma-Aldrich, cat. N0636), 1X B-27 supplement (Thermo Fisher Scientific, cat. 17504044), 1X N-2 supplement (Thermo Fisher Scientific, cat. 17502048), 10 microM Y-27632 dihydrochloride (Tocris Bioscience, cat. 1254), and 50 ng/mL human EGF recombinant protein (Thermo Fisher Scientific, cat. PHG0311). The 485176-168-R4-J1-PDC line was cultured in Panc media, which includes all 6C/Colon 1B media components plus 100 ng/mL human FGF-10 (Thermo Fisher Scientific, cat. 100-26), 500 nM SB-431542 (Selleckchem, cat. S1067), and gastrin (Tocris, cat. 3006).
[…]
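Also: spheroids exposed to agents for 7 days before readout.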
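For viability, T/C in this document: percent viability relative to DMSO vehicle control taken as 100%.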

Compound `C#Cc1c(F)ccc2cc(O)cc(-c3ncc4c(N5CC6CCC(C5)N6)nc(OCC56CCCN5CC(F)C6)nc4c3F)c12` (configuration not stated) + Cc1cnc(CNC(=O)c2c(=O)c3ccc(N4CCCN(C)CC4)nc3n3c2sc2ccccc23)cn1 has an IC50 (second compound 0.0316 µM) greater than 10000 nM, an IC50 (second compound 0.1 µM) of less than 31.6 nM and an IC50 (second compound 0.316 µM) of less than 31.6 nM. The IC50 (second compound 1 µM) was less than 31.6 nM, the IC50 (second compound 3.16 µM) was less than 31.6 nM and the IC50 (second compound 10 µM) was less than 31.6 nM. It also gave a viability, T/C (second compound 0.0316 µM, first compound 0.0316 µM) of 82.9%, a viability, T/C (second compound 0.0316 µM, first compound 0.1 µM) of 72.5% and a viability, T/C (second compound 0.0316 µM, first compound 0.316 µM) of 84.7%. For the same compound, the viability, T/C (second compound 0.0316 µM, first compound 1 µM) was 61%, the viability, T/C (second compound 0.0316 µM, first compound 3.16 µM) was 91.2% and the viability, T/C (second compound 0.0316 µM, first compound 10 µM) was 89.8%. The viability, T/C (second compound 0.1 µM, first compound 0.0316 µM) was 30.7%, the viability, T/C (second compound 0.1 µM, first compound 0.1 µM) was 35.5% and the viability, T/C (second compound 0.1 µM, first compound 0.316 µM) was 32.8%. The viability, T/C (second compound 0.1 µM, first compound 1 µM) was 36.2%, the viability, T/C (second compound 0.1 µM, first compound 3.16 µM) was 33.9% and the viability, T/C (second compound 0.1 µM, first compound 10 µM) was 35.9%. For the same compound, the viability, T/C (second compound 0.316 µM, first compound 0.0316 µM) was 22.9%, the viability, T/C (second compound 0.316 µM, first compound 0.1 µM) was 28.6% and the viability, T/C (second compound 0.316 µM, first compound 0.316 µM) was 24.8%. It also gave a viability, T/C (second compound 0.316 µM, first compound 1 µM) of 24.1%, a viability, T/C (second compound 0.316 µM, first compound 3.16 µM) of 29.4% and a viability, T/C (second compound 0.316 µM, first compound 10 µM) of 27%. For the same compound, the viability, T/C (second compound 1 µM, first compound 0.0316 µM) was 17.9%, the viability, T/C (second compound 1 µM, first compound 0.1 µM) was 23.4% and the viability, T/C (second compound 1 µM, first compound 0.316 µM) was 20.6%. It also gave a viability, T/C (second compound 1 µM, first compound 1 µM) of 21.8%, a viability, T/C (second compound 1 µM, first compound 3.16 µM) of 23% and a viability, T/C (second compound 1 µM, first compound 10 µM) of 19.8%. It also gave a viability, T/C (second compound 3.16 µM, first compound 0.0316 µM) of 17%, a viability, T/C (second compound 3.16 µM, first compound 0.1 µM) of 20.1% and a viability, T/C (second compound 3.16 µM, first compound 0.316 µM) of 18.8%. For the same compound, the viability, T/C (second compound 3.16 µM, first compound 1 µM) was 17.3%, the viability, T/C (second compound 3.16 µM, first compound 3.16 µM) was 22.7% and the viability, T/C (second compound 3.16 µM, first compound 10 µM) was 20.5%. For the same compound, the viability, T/C (second compound 10 µM, first compound 0.0316 µM) was 0.13%, the viability, T/C (second compound 10 µM, first compound 0.1 µM) was 0.18% and the viability, T/C (second compound 10 µM, first compound 0.316 µM) was 0.19%. The viability, T/C (second compound 10 µM, first compound 1 µM) was 0.15%, the viability, T/C (second compound 10 µM, first compound 3.16 µM) was 0.18% and the viability, T/C (second compound 10 µM, first compound 10 µM) was 0.16%.
